Measurements as given in ChEMBL document CHEMBL3045245, “Synthesis and antitumor activities of certain novel 2-amino-9-(4-halostyryl)-4H-pyrano[3,2-h]quinoline derivatives” (Med Chem Res, 2012).
Converted amounts (≈) assume the structure as drawn.

system: not listed separately; assay: Cytotoxicity against Homo sapiens (human) HCT cells assessed as cell viability at 6.25 ug/ml after 48 hr by MTT assay; type: functional; settings: read-out: Activity

Structure (SMILES) | viability at 6.25 µg/mL [%]
CCOC(=O)C1=C(N)Oc2c(ccc3ccc(/C=C/c4ccc(F)cc4)nc23)C1c1ccc(Cl)cc1 (configuration not stated) | 73.1
N#CC1=C(N)Oc2c(ccc3ccc(/C=C/c4ccc(Cl)cc4)nc23)C1c1ccc(Cl)cc1 (configuration not stated) | 42.6

system: not listed separately; assay: Cytotoxicity against Homo sapiens (human) HCT cells assessed as cell viability at 25 ug/ml after 48 hr by MTT assay; type: functional; settings: read-out: Activity

Structure (SMILES) | viability at 25 µg/mL [%]
CCOC(=O)C1=C(N)Oc2c(ccc3ccc(/C=C/c4ccc(F)cc4)nc23)C1c1ccc(Cl)cc1 (configuration not stated) | 51.3
N#CC1=C(N)Oc2c(ccc3ccc(/C=C/c4ccc(Cl)cc4)nc23)C1c1ccc(Cl)cc1 (configuration not stated) | 29

system: not listed separately; assay: Cytotoxicity against Homo sapiens (human) HCT cells assessed as cell viability at 50 ug/ml after 48 hr by MTT assay; type: functional; settings: read-out: Activity

Structure (SMILES) | viability at 50 µg/mL [%]
CCOC(=O)C1=C(N)Oc2c(ccc3ccc(/C=C/c4ccc(F)cc4)nc23)C1c1ccc(Cl)cc1 (configuration not stated) | 19.8
N#CC1=C(N)Oc2c(ccc3ccc(/C=C/c4ccc(Cl)cc4)nc23)C1c1ccc(Cl)cc1 (configuration not stated) | 24.7

system: HepG2; assay: Cytotoxicity against Homo sapiens (human) HepG2 cells assessed as cell viability at 12.5 ug/ml after 48 hr by MTT assay; type: functional; settings: HepG2, 48 h, read-out: Activity

Structure (SMILES) | viability at 12.5 µg/mL [%]
CCOC(=O)C1=C(N)Oc2c(ccc3ccc(/C=C/c4ccc(F)cc4)nc23)C1c1ccc(Cl)cc1 (configuration not stated) | 79.4
N#CC1=C(N)Oc2c(ccc3ccc(/C=C/c4ccc(Cl)cc4)nc23)C1c1ccc(Cl)cc1 (configuration not stated) | 74

system: HepG2; assay: Cytotoxicity against Homo sapiens (human) HepG2 cells assessed as cell viability at 50 ug/ml after 48 hr by MTT assay; type: functional; settings: HepG2, 48 h, read-out: Activity

Structure (SMILES) | viability at 50 µg/mL [%]
CCOC(=O)C1=C(N)Oc2c(ccc3ccc(/C=C/c4ccc(F)cc4)nc23)C1c1ccc(Cl)cc1 (configuration not stated) | 45.2
N#CC1=C(N)Oc2c(ccc3ccc(/C=C/c4ccc(Cl)cc4)nc23)C1c1ccc(Cl)cc1 (configuration not stated) | 48.4

system: MCF7; assay: Cytotoxicity against Homo sapiens (human) MCF7 cells assessed as cell viability at 50 ug/ml after 48 hr by MTT assay; type: functional; settings: MCF7, 48 h, read-out: Activity

Structure (SMILES) | viability at 50 µg/mL [%]
CCOC(=O)C1=C(N)Oc2c(ccc3ccc(/C=C/c4ccc(F)cc4)nc23)C1c1ccc(Cl)cc1 (configuration not stated) | 34.6
N#CC1=C(N)Oc2c(ccc3ccc(/C=C/c4ccc(Cl)cc4)nc23)C1c1ccc(Cl)cc1 (configuration not stated) | 29.6

system: HepG2; assay: Cytotoxicity against Homo sapiens (human) HepG2 cells assessed as cell viability at 25 ug/ml after 48 hr by MTT assay; type: functional; settings: HepG2, 48 h, read-out: Activity

Structure (SMILES) | viability at 25 µg/mL [%]
CCOC(=O)C1=C(N)Oc2c(ccc3ccc(/C=C/c4ccc(F)cc4)nc23)C1c1ccc(Cl)cc1 (configuration not stated) | 69
N#CC1=C(N)Oc2c(ccc3ccc(/C=C/c4ccc(Cl)cc4)nc23)C1c1ccc(Cl)cc1 (configuration not stated) | 68.2

system: not listed separately; assay: Cytotoxicity against Homo sapiens (human) HCT cells after 48 hr by MTT assay; type: functional, cell-based; settings: not given

Structure (SMILES) | IC50 [µg/mL]
CCOC(=O)C1=C(N)Oc2c(ccc3ccc(/C=C/c4ccc(F)cc4)nc23)C1c1ccc(Cl)cc1 (configuration not stated) | 26.2 (≈ 52.3 µM)
N#CC1=C(N)Oc2c(ccc3ccc(/C=C/c4ccc(Cl)cc4)nc23)C1c1ccc(Cl)cc1 (configuration not stated) | 4.8 (≈ 10.2 µM)

system: MCF7; assay: Cytotoxicity against Homo sapiens (human) MCF7 cells assessed as cell viability at 6.25 ug/ml after 48 hr by MTT assay; type: functional; settings: MCF7, 48 h, read-out: Activity

Structure (SMILES) | viability at 6.25 µg/mL [%]
CCOC(=O)C1=C(N)Oc2c(ccc3ccc(/C=C/c4ccc(F)cc4)nc23)C1c1ccc(Cl)cc1 (configuration not stated) | 84.7
N#CC1=C(N)Oc2c(ccc3ccc(/C=C/c4ccc(Cl)cc4)nc23)C1c1ccc(Cl)cc1 (configuration not stated) | 45.4

system: MCF7; assay: Cytotoxicity against Homo sapiens (human) MCF7 cells assessed as cell viability at 12.5 ug/ml after 48 hr by MTT assay; type: functional; settings: MCF7, 48 h, read-out: Activity

Structure (SMILES) | viability at 12.5 µg/mL [%]
CCOC(=O)C1=C(N)Oc2c(ccc3ccc(/C=C/c4ccc(F)cc4)nc23)C1c1ccc(Cl)cc1 (configuration not stated) | 73.5
N#CC1=C(N)Oc2c(ccc3ccc(/C=C/c4ccc(Cl)cc4)nc23)C1c1ccc(Cl)cc1 (configuration not stated) | 39.7

system: not listed separately; assay: Cytotoxicity against Homo sapiens (human) HCT cells assessed as cell viability at 1.56 ug/ml after 48 hr by MTT assay; type: functional; settings: read-out: Activity

Structure (SMILES) | viability at 1.56 µg/mL [%]
CCOC(=O)C1=C(N)Oc2c(ccc3ccc(/C=C/c4ccc(F)cc4)nc23)C1c1ccc(Cl)cc1 (configuration not stated) | 98.9
N#CC1=C(N)Oc2c(ccc3ccc(/C=C/c4ccc(Cl)cc4)nc23)C1c1ccc(Cl)cc1 (configuration not stated) | 69.1

system: not listed separately; assay: Cytotoxicity against Homo sapiens (human) HCT cells assessed as cell viability at 3.125 ug/ml after 48 hr by MTT assay; type: functional; settings: read-out: Activity

Structure (SMILES) | viability at 3.125 µg/mL [%]
CCOC(=O)C1=C(N)Oc2c(ccc3ccc(/C=C/c4ccc(F)cc4)nc23)C1c1ccc(Cl)cc1 (configuration not stated) | 80.6
N#CC1=C(N)Oc2c(ccc3ccc(/C=C/c4ccc(Cl)cc4)nc23)C1c1ccc(Cl)cc1 (configuration not stated) | 59

system: MCF7; assay: Cytotoxicity against Homo sapiens (human) MCF7 cells assessed as cell viability at 1.56 ug/ml after 48 hr by MTT assay; type: functional; settings: MCF7, 48 h, read-out: Activity

Structure (SMILES) | viability at 1.56 µg/mL [%]
CCOC(=O)C1=C(N)Oc2c(ccc3ccc(/C=C/c4ccc(F)cc4)nc23)C1c1ccc(Cl)cc1 (configuration not stated) | 98.5
N#CC1=C(N)Oc2c(ccc3ccc(/C=C/c4ccc(Cl)cc4)nc23)C1c1ccc(Cl)cc1 (configuration not stated) | 86.6

system: MCF7; assay: Cytotoxicity against Homo sapiens (human) MCF7 cells assessed as cell viability at 25 ug/ml after 48 hr by MTT assay; type: functional; settings: MCF7, 48 h, read-out: Activity

Structure (SMILES) | viability at 25 µg/mL [%]
CCOC(=O)C1=C(N)Oc2c(ccc3ccc(/C=C/c4ccc(F)cc4)nc23)C1c1ccc(Cl)cc1 (configuration not stated) | 61.2
N#CC1=C(N)Oc2c(ccc3ccc(/C=C/c4ccc(Cl)cc4)nc23)C1c1ccc(Cl)cc1 (configuration not stated) | 33.8

system: not listed separately; assay: Cytotoxicity against Homo sapiens (human) HCT cells assessed as cell viability at 12.5 ug/ml after 48 hr by MTT assay; type: functional; settings: read-out: Activity

Structure (SMILES) | viability at 12.5 µg/mL [%]
CCOC(=O)C1=C(N)Oc2c(ccc3ccc(/C=C/c4ccc(F)cc4)nc23)C1c1ccc(Cl)cc1 (configuration not stated) | 69.5
N#CC1=C(N)Oc2c(ccc3ccc(/C=C/c4ccc(Cl)cc4)nc23)C1c1ccc(Cl)cc1 (configuration not stated) | 33.8

system: HepG2; assay: Cytotoxicity against Homo sapiens (human) HepG2 cells assessed as cell viability at 3.125 ug/ml after 48 hr by MTT assay; type: functional; settings: HepG2, 48 h, read-out: Activity

Structure (SMILES) | viability at 3.125 µg/mL [%]
CCOC(=O)C1=C(N)Oc2c(ccc3ccc(/C=C/c4ccc(F)cc4)nc23)C1c1ccc(Cl)cc1 (configuration not stated) | 96.4
N#CC1=C(N)Oc2c(ccc3ccc(/C=C/c4ccc(Cl)cc4)nc23)C1c1ccc(Cl)cc1 (configuration not stated) | 85.8

system: MCF7; assay: Cytotoxicity against Homo sapiens (human) MCF7 cells assessed as cell viability at 3.125 ug/ml after 48 hr by MTT assay; type: functional; settings: MCF7, 48 h, read-out: Activity

Structure (SMILES) | viability at 3.125 µg/mL [%]
CCOC(=O)C1=C(N)Oc2c(ccc3ccc(/C=C/c4ccc(F)cc4)nc23)C1c1ccc(Cl)cc1 (configuration not stated) | 92.1
N#CC1=C(N)Oc2c(ccc3ccc(/C=C/c4ccc(Cl)cc4)nc23)C1c1ccc(Cl)cc1 (configuration not stated) | 61.9

system: HepG2; assay: Cytotoxicity against Homo sapiens (human) HepG2 cells assessed as cell viability at 1.56 ug/ml after 48 hr by MTT assay; type: functional; settings: HepG2, 48 h, read-out: Activity

Structure (SMILES) | viability at 1.56 µg/mL [%]
CCOC(=O)C1=C(N)Oc2c(ccc3ccc(/C=C/c4ccc(F)cc4)nc23)C1c1ccc(Cl)cc1 (configuration not stated) | 98.9
N#CC1=C(N)Oc2c(ccc3ccc(/C=C/c4ccc(Cl)cc4)nc23)C1c1ccc(Cl)cc1 (configuration not stated) | 95.4

system: HepG2; assay: Cytotoxicity against Homo sapiens (human) HepG2 cells assessed as cell viability at 6.25 ug/ml after 48 hr by MTT assay; type: functional; settings: HepG2, 48 h, read-out: Activity

Structure (SMILES) | viability at 6.25 µg/mL [%]
CCOC(=O)C1=C(N)Oc2c(ccc3ccc(/C=C/c4ccc(F)cc4)nc23)C1c1ccc(Cl)cc1 (configuration not stated) | 85.1
N#CC1=C(N)Oc2c(ccc3ccc(/C=C/c4ccc(Cl)cc4)nc23)C1c1ccc(Cl)cc1 (configuration not stated) | 79.2

system: MCF7; assay: Cytotoxicity against Homo sapiens (human) MCF7 cells after 48 hr by MTT assay; type: functional, cell-based; settings: MCF7, 48 h

Structure (SMILES) | IC50 [µg/mL]
CCOC(=O)C1=C(N)Oc2c(ccc3ccc(/C=C/c4ccc(F)cc4)nc23)C1c1ccc(Cl)cc1 (configuration not stated) | 37.9 (≈ 75.7 µM)
N#CC1=C(N)Oc2c(ccc3ccc(/C=C/c4ccc(Cl)cc4)nc23)C1c1ccc(Cl)cc1 (configuration not stated) | 5.6 (≈ 11.9 µM)

system: HepG2; assay: Cytotoxicity against Homo sapiens (human) HepG2 cells after 48 hr by MTT assay; type: functional, cell-based; settings: HepG2, 48 h

Structure (SMILES) | IC50 [µg/mL]
CCOC(=O)C1=C(N)Oc2c(ccc3ccc(/C=C/c4ccc(F)cc4)nc23)C1c1ccc(Cl)cc1 (configuration not stated) | 47.5 (≈ 94.8 µM)
N#CC1=C(N)Oc2c(ccc3ccc(/C=C/c4ccc(Cl)cc4)nc23)C1c1ccc(Cl)cc1 (configuration not stated) | 48.2 (≈ 102 µM)
